Laboratory results published in PubChem BioAssay (NCI).
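Where inhibition never reached the appropriate level, the endpoint shown equals the highest concentration tested. Otherwise, values were interpolated linearly from a five-concentration, 48-hour dose response in 96-well plates. Here, GI50 denotes the concentration required for 50% inhibition of growth. TGI: concentration producing complete growth inhibition.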

Assays:
Assay in all cases: inhibition of tumour cell growth, NCI panel, 48 h
NCI-H226 lung = tested on: NCI-H226 lung
NCI-H23 lung = tested on: NCI-H23 lung
NCI-H460 lung = tested on: NCI-H460 lung
NCI-H522 lung = tested on: NCI-H522 lung
NCI/ADR-RES ovarian = tested on: NCI/ADR-RES ovarian
OVCAR-3 ovarian = tested on: OVCAR-3 ovarian
OVCAR-4 ovarian = tested on: OVCAR-4 ovarian
OVCAR-5 ovarian = tested on: OVCAR-5 ovarian
OVCAR-8 ovarian = tested on: OVCAR-8 ovarian
PC-3 prostate = tested on: PC-3 prostate
RPMI-8226 leukemia = tested on: RPMI-8226 leukemia
RXF 393 renal = tested on: RXF 393 renal
SF-268 CNS = tested on: SF-268 CNS
SF-295 CNS = tested on: SF-295 CNS
SF-539 CNS = tested on: SF-539 CNS
SK-MEL-2 melanoma = tested on: SK-MEL-2 melanoma
SK-MEL-28 melanoma = tested on: SK-MEL-28 melanoma
SK-MEL-5 melanoma = tested on: SK-MEL-5 melanoma
SK-OV-3 ovarian = tested on: SK-OV-3 ovarian
SN12C renal = tested on: SN12C renal
SNB-19 CNS = tested on: SNB-19 CNS
SNB-75 CNS = tested on: SNB-75 CNS
SW-620 colon = tested on: SW-620 colon
T-47D breast = tested on: T-47D breast
TK-10 renal = tested on: TK-10 renal
U251 CNS = tested on: U251 CNS
UACC-257 melanoma = tested on: UACC-257 melanoma
UACC-62 melanoma = tested on: UACC-62 melanoma

Work on `CO[C@@H]1CSSC1Cn1nc(-c2ccc(Oc3ccccc3)cc2)c2c(N)ncnc21` (stereo partly specified) yielded a GI50 (NCI-H226 lung) of 39.7 µM, a TGI (NCI-H226 lung) greater than 100 µM and a GI50 (NCI-H23 lung) greater than 100 µM. For the same molecule, the TGI (NCI-H23 lung) was greater than 100 µM, the GI50 (NCI-H460 lung) was 3.43 µM and the TGI (NCI-H460 lung) was 76.5 µM. For the same molecule, the GI50 (NCI-H522 lung) was 41.8 µM, the TGI (NCI-H522 lung) was greater than 100 µM and the GI50 (NCI/ADR-RES ovarian) was greater than 100 µM. For the same molecule, the TGI (NCI/ADR-RES ovarian) was greater than 100 µM, the GI50 (OVCAR-3 ovarian) was 63.5 µM and the TGI (OVCAR-3 ovarian) was greater than 100 µM. The GI50 (OVCAR-4 ovarian) was greater than 100 µM, the TGI (OVCAR-4 ovarian) was greater than 100 µM and the GI50 (OVCAR-5 ovarian) was 51.5 µM. It also gave a TGI (OVCAR-5 ovarian) greater than 100 µM, a GI50 (OVCAR-8 ovarian) greater than 100 µM and a TGI (OVCAR-8 ovarian) greater than 100 µM. The GI50 (PC-3 prostate) was 58.7 µM, the TGI (PC-3 prostate) was greater than 100 µM and the GI50 (RPMI-8226 leukemia) was 43.3 µM. It also gave a TGI (RPMI-8226 leukemia) greater than 100 µM, a GI50 (RXF 393 renal) of 50.3 µM and a TGI (RXF 393 renal) greater than 100 µM. The GI50 (SF-268 CNS) was 8.22 µM, the TGI (SF-268 CNS) was greater than 100 µM and the GI50 (SF-295 CNS) was 62 µM. It also gave a TGI (SF-295 CNS) greater than 100 µM, a GI50 (SF-539 CNS) greater than 100 µM and a TGI (SF-539 CNS) greater than 100 µM. It also gave a GI50 (SK-MEL-2 melanoma) of 22.8 µM, a TGI (SK-MEL-2 melanoma) greater than 100 µM and a GI50 (SK-MEL-28 melanoma) of 2.87 µM. For the same molecule, the TGI (SK-MEL-28 melanoma) was 21 µM, the GI50 (SK-MEL-5 melanoma) was 14.8 µM and the TGI (SK-MEL-5 melanoma) was greater than 100 µM. For the same molecule, the GI50 (SK-OV-3 ovarian) was 3.25 µM, the TGI (SK-OV-3 ovarian) was 24.6 µM and the GI50 (SN12C renal) was greater than 100 µM. For the same molecule, the TGI (SN12C renal) was greater than 100 µM, the GI50 (SNB-19 CNS) was greater than 100 µM and the TGI (SNB-19 CNS) was greater than 100 µM. The GI50 (SNB-75 CNS) was greater than 100 µM, the TGI (SNB-75 CNS) was greater than 100 µM and the GI50 (SW-620 colon) was 57.9 µM. For the same molecule, the TGI (SW-620 colon) was greater than 100 µM, the GI50 (T-47D breast) was 6.14 µM and the TGI (T-47D breast) was greater than 100 µM. For the same molecule, the GI50 (TK-10 renal) was 37.9 µM, the TGI (TK-10 renal) was greater than 100 µM and the GI50 (U251 CNS) was greater than 100 µM. For the same molecule, the TGI (U251 CNS) was greater than 100 µM, the GI50 (UACC-257 melanoma) was 16.2 µM and the TGI (UACC-257 melanoma) was greater than 100 µM. For the same molecule, the GI50 (UACC-62 melanoma) was 14.5 µM and the TGI (UACC-62 melanoma) was greater than 100 µM.
